Measurements taken from PubChem BioAssay AID1963446 (Molecular Pharmacology Branch, DTP, NCI, 2024).

Test system: 993429-296-R-J1-PDC complex spheroid growth, percent test/control
Test: Anticancer human tumor 993429-296-R-J1-PDC patient-derived uterine sarcoma cell line growth inhibition [Asc]
Details: for IC50: curve of first compound; for viability, T/C: stronger effect = lower value; active means viability on the fitted dose curve at most 10% of control; inactive means the rest
Procedure, shortened: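 Concentration series start at each agent's clinical Cmax, or at 10 microM when none is established, and drop in half-log steps; agents are applied alone or together to complex spheroids built with HUVEC and hMSC.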

[1] = second compound 0.1 µM, first compound 0.0316 µM
[2] = second compound 0.1 µM, first compound 0.1 µM
[3] = second compound 0.1 µM, first compound 0.316 µM
[4] = second compound 0.1 µM, first compound 1 µM
[5] = second compound 0.316 µM, first compound 0.0316 µM
[6] = second compound 0.316 µM, first compound 0.1 µM
[7] = second compound 0.316 µM, first compound 0.316 µM
[8] = second compound 0.316 µM, first compound 1 µM
[9] = second compound 1 µM, first compound 0.0316 µM
[10] = second compound 1 µM, first compound 0.1 µM
[11] = second compound 1 µM, first compound 0.316 µM
[12] = second compound 1 µM, first compound 1 µM
[13] = second compound 3.16 µM, first compound 0.0316 µM
[14] = second compound 3.16 µM, first compound 0.1 µM
[15] = second compound 3.16 µM, first compound 0.316 µM
[16] = second compound 3.16 µM, first compound 1 µM
[17] = second compound 10 µM, first compound 0.0316 µM
[18] = second compound 10 µM, first compound 0.1 µM
[19] = second compound 10 µM, first compound 0.316 µM
[20] = second compound 10 µM, first compound 1 µM
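Further: spheroids exposed to compounds for seven days.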

C#Cc1c(F)ccc2cc(O)cc(-c3ncc4c(N5CC6CCC(C5)N6)nc(OCC56CCCN5CC(F)C6)nc4c3F)c12 (stereo not given) + Cc1c(S(C)(=O)=O)c(-c2cc(F)cc(N3CCN(c4ccc(NS(=O)(=O)c5ccc(NC(CCN6CCC(C(=O)OCCCP(=O)(O)O)CC6)CSc6ccccc6)c(S(=O)(=O)C(F)(F)F)c5)cc4)CC3)c2)c(-c2ccc(Cl)cc2)n1C(C)C
active: viability, T/C (second compound 0.1 µM, first compound 10 µM) 2.44% | viability, T/C (second compound 0.316 µM, first compound 10 µM) 1.38% | viability, T/C (second compound 1 µM, first compound 10 µM) 0.37% | viability, T/C (second compound 3.16 µM, first compound 10 µM) 0.32% | viability, T/C (second compound 10 µM, first compound 10 µM) 2.69%
1410 nM: IC50 (second compound 0.316 µM)
2750 nM: IC50 (second compound 10 µM)
1450 nM: IC50 (second compound 1 µM)
< 31.6 nM: IC50 (second compound 3.16 µM)
inactive: viability, T/C [1] 70.7% | viability, T/C [2] 69.9% | viability, T/C [3] 64.8% | viability, T/C [4] 67.3% | viability, T/C (second compound 0.1 µM, first compound 3.16 µM) 48.8% | viability, T/C [5] 55.4% | viability, T/C [6] 73.8% | viability, T/C [7] 66.5% | viability, T/C [8] 53.1% | viability, T/C (second compound 0.316 µM, first compound 3.16 µM) 36% | viability, T/C [9] 60.1% | viability, T/C [10] 55.9% | viability, T/C [11] 50.7% | viability, T/C [12] 67.3% | viability, T/C (second compound 1 µM, first compound 3.16 µM) 32% | viability, T/C [13] 53.6% | viability, T/C [14] 45.6% | viability, T/C [15] 45.6% | viability, T/C [16] 36% | viability, T/C (second compound 3.16 µM, first compound 3.16 µM) 33% | viability, T/C [17] 94.9% | viability, T/C [18] 98.8% | viability, T/C [19] 88.1% | viability, T/C [20] 74.5% | viability, T/C (second compound 10 µM, first compound 3.16 µM) 46.9%
2930 nM: IC50 (second compound 0.1 µM)

CNC(C)C(=O)NC1CN(S(=O)(=O)c2cccc(S(=O)(=O)N3CCC4CCC(C(=O)NC(c5ccccc5)c5ccccc5)N4C(=O)C(NC(=O)C(C)NC)C3)c2)CCC2CCC(C(=O)NC(c3ccccc3)c3ccccc3)N2C1=O (stereo not given) + Cc1c(S(C)(=O)=O)c(-c2cc(F)cc(N3CCN(c4ccc(NS(=O)(=O)c5ccc(NC(CCN6CCC(C(=O)OCCCP(=O)(O)O)CC6)CSc6ccccc6)c(S(=O)(=O)C(F)(F)F)c5)cc4)CC3)c2)c(-c2ccc(Cl)cc2)n1C(C)C
3.25 nM: IC50 (second compound 3.16 µM)
100 nM: IC50 (second compound 0.316 µM)
542 nM: IC50 (second compound 0.1 µM)
inactive: viability, T/C (second compound 0.1 µM, first compound 0.00316 µM) 75.5% | viability, T/C (second compound 0.1 µM, first compound 0.01 µM) 60.4% | viability, T/C [1] 62.1% | viability, T/C [2] 53% | viability, T/C [3] 56% | viability, T/C [4] 45.3% | viability, T/C (second compound 0.316 µM, first compound 0.00316 µM) 59.3% | viability, T/C (second compound 0.316 µM, first compound 0.01 µM) 59.7% | viability, T/C [5] 54.3% | viability, T/C [6] 42% | viability, T/C [7] 54.6% | viability, T/C [8] 41.7% | viability, T/C (second compound 1 µM, first compound 0.00316 µM) 48.9% | viability, T/C (second compound 1 µM, first compound 0.01 µM) 40.8% | viability, T/C [9] 47.4% | viability, T/C [10] 48.9% | viability, T/C [11] 41.6% | viability, T/C [12] 42.8% | viability, T/C (second compound 3.16 µM, first compound 0.00316 µM) 50.2% | viability, T/C (second compound 3.16 µM, first compound 0.01 µM) 39.1% | viability, T/C [13] 29.4% | viability, T/C [14] 30.7% | viability, T/C [15] 34.5% | viability, T/C [16] 24.1% | viability, T/C (second compound 10 µM, first compound 0.00316 µM) 85.5% | viability, T/C (second compound 10 µM, first compound 0.01 µM) 81.9% | viability, T/C [17] 67.5% | viability, T/C [18] 56.8% | viability, T/C [19] 45.5% | viability, T/C [20] 53.5%
< 3.16 nM: IC50 (second compound 1 µM)
901 nM: IC50 (second compound 10 µM)

Cc1nc(N2CCC3(CC2)COC(C)C3N)c(CO)nc1Sc1ccnc(N)c1Cl (stereo not given) + Cc1c(S(C)(=O)=O)c(-c2cc(F)cc(N3CCN(c4ccc(NS(=O)(=O)c5ccc(NC(CCN6CCC(C(=O)OCCCP(=O)(O)O)CC6)CSc6ccccc6)c(S(=O)(=O)C(F)(F)F)c5)cc4)CC3)c2)c(-c2ccc(Cl)cc2)n1C(C)C
< 9.49 nM: IC50 (second compound 3.16 µM)
inactive: viability, T/C (second compound 0.1 µM, first compound 0.00949 µM) 71.1% | viability, T/C (second compound 0.1 µM, first compound 0.03 µM) 64.3% | viability, T/C (second compound 0.1 µM, first compound 0.0949 µM) 47.2% | viability, T/C (second compound 0.1 µM, first compound 0.3 µM) 29.7% | viability, T/C (second compound 0.1 µM, first compound 0.949 µM) 18.8% | viability, T/C (second compound 0.1 µM, first compound 3 µM) 17.1% | viability, T/C (second compound 0.316 µM, first compound 0.00949 µM) 60.7% | viability, T/C (second compound 0.316 µM, first compound 0.03 µM) 49.3% | viability, T/C (second compound 0.316 µM, first compound 0.0949 µM) 35.7% | viability, T/C (second compound 0.316 µM, first compound 0.3 µM) 21.9% | viability, T/C (second compound 0.316 µM, first compound 0.949 µM) 14.1% | viability, T/C (second compound 0.316 µM, first compound 3 µM) 14.7% | viability, T/C (second compound 1 µM, first compound 0.00949 µM) 52.2% | viability, T/C (second compound 1 µM, first compound 0.03 µM) 46.3% | viability, T/C (second compound 1 µM, first compound 0.0949 µM) 27% | viability, T/C (second compound 1 µM, first compound 0.3 µM) 14.5% | viability, T/C (second compound 1 µM, first compound 0.949 µM) 14.4% | viability, T/C (second compound 1 µM, first compound 3 µM) 10.1% | viability, T/C (second compound 3.16 µM, first compound 0.00949 µM) 34.6% | viability, T/C (second compound 3.16 µM, first compound 0.03 µM) 29.8% | viability, T/C (second compound 3.16 µM, first compound 0.0949 µM) 33.6% | viability, T/C (second compound 3.16 µM, first compound 0.3 µM) 13.2% | viability, T/C (second compound 3.16 µM, first compound 0.949 µM) 10.8% | viability, T/C (second compound 10 µM, first compound 0.00949 µM) 76.7% | viability, T/C (second compound 10 µM, first compound 0.03 µM) 67.5% | viability, T/C (second compound 10 µM, first compound 0.0949 µM) 51.1% | viability, T/C (second compound 10 µM, first compound 0.3 µM) 29.9% | viability, T/C (second compound 10 µM, first compound 0.949 µM) 14.4% | viability, T/C (second compound 10 µM, first compound 3 µM) 13.8%
active: viability, T/C (second compound 3.16 µM, first compound 3 µM) 8.71%
14.6 nM: IC50 (second compound 1 µM)
30.5 nM: IC50 (second compound 0.316 µM)
80.2 nM: IC50 (second compound 0.1 µM)
98.7 nM: IC50 (second compound 10 µM)
